From patent publication US7875609B2, “Urea derivatives, processes for their preparation, their use as medicaments, and pharmaceutical compositions containing them” (Galapagos Sasu, priority 2005, dated 2011)
Where a name gives a salt, the structure may show the parent alone.

Assays:
[1] = system: serum level of PTH (1-34+1-84); experiment: PTH measurement in rats with chronic renal failure (5/6 nephrectomy); format: in vivo, rat; conditions: oral, dose 10 mg/kg, 5/6 nephrectomised rats, ten days after nephrectomy, fasted 16 h, serum 30 min after dosing
Text: II—Rats with Chronic Renal Failure
Chronic renal failure (CRF) was induced in male rats (220-250 g, Sprague-Dawley, CERJ) by ablation of ⅚ of the total renal mass. After anaesthesia (Imalgene 1000), the rats were subjected to exeresis of the right kidney and ablation of both ends of the left kidney, representing approximately ⅔ of the organ).
The incision was cauterised by application of dry ice. To compensate for the loss of blood volume, the animals received an intravenous injection of physiological serum. Two days after the procedure and for the remainder of the trial, the rats were fed with a standard diet (UAR or Safe) and drank phosphate-enriched (1.2%) Volvic® water at will. The procedure was carried out either at the supplier's or at the laboratory. Ten days after nephrectomy, the animals which had been fasting for 16 hours entered the trial. The compounds to be tested or their vehicle were administered orally 30 min. prior to sacrifice. The arterial and venous blood was at 4° C. after decapitation using a guillotine and was centrifuged cold. The sera were frozen a −20° C. After thawing, the serum level of PTH (1-34+1-84) was measured by a radioimmunology test (IRMA kit, rat, Immutopics).

[2] = system: serum level of PTH (1-34+1-84); experiment: PTH measurement on intact rats (serum PTH by IRMA after oral administration); format: in vivo, rat; conditions: for inhibition in vivo at 30 mg/kg: Rattus norvegicus, 0.5 h, oral, male Sprague-Dawley rats fasted 16 h, serum 30 min after dosing, read-out: % PTH reduction at 30 min. relative to the untreated group (intact rat)
Procedure: I—PTH Measurement on Intact Rats
After fasting for 16 hours, some male rats (Sprague-Dawley, 250-300 g, Charles River France or CERJ) received an oral administration of the compounds to be tested or their vehicle. 30 min. after this bolus, the animals were slaughtered by decapitation using a guillotine. The arterial and venous blood was collected at 4° C. and centrifuged cold, then the sera were frozen at −20° C. After thawing, the serum level of PTH (1-34+1-84) was measured by a radioimmunology test (IRMA kit, rat, Immutopics).

| Structure (SMILES) | % PTH reduction at 30 min. relative to the untreated group (CRF rat) [1] | inhibition in vivo at 30 mg/kg [2] | PTH level reduced relative to the control group ([2]; oral administration, dose of 30 mg/kg, intact rats, 30 min) |
| --- | --- | --- | --- |
| Cn1nnc(-c2cccc(NC(=O)N(CCC(c3ccccc3)c3ccccc3)CCN3CCOCC3)c2)n1 (single isomer, unassigned) [Example 85, 1-(3,3-diphenylpropyl)-3-[3-(2-methyl-2H-tetrazol-5-yl)phenyl]-1-(2-morpholin-4-ylethyl)urea] | 70% | 88% |  |
| COC(=O)c1cccc(NC(=O)N(CCC(c2ccccc2)c2ccccc2)CCN2CCOCC2)c1 [Example 1, 3-[3-(3,3-diphenylpropyl)-3-(2-morpholin-4-ylethyl)ureido]benzoic acid methyl ester] |  | 56% |  |
| CC(C)(C)OC(=O)c1cccc(NC(=O)N(CCC(c2ccccc2)c2ccccc2)CCN2CCOCC2)c1 [Example 40, 3-[3-(3,3-diphenylpropyl)-3-(2-morpholin-4-ylethyl)ureido]benzoic acid tertbutyl ester hydrochloride] |  | 21% |  |
| CCC(=O)c1cccc(NC(=O)N(CCC(c2ccccc2)c2ccccc2)CCN2CCOCC2)c1 [Example 42] |  | 69% |  |
| O=C(Nc1ccc(Cl)c(C(F)(F)F)c1)N(CCC(c1ccccc1)c1ccccc1)CCN1CCOCC1 [Example 43, 3-(4-chloro-3-trifluoromethylphenyl)-1-(3,3-diphenylpropyl)-1-(2-morpholin-4-ylethyl)urea hydrochloride] |  | 43% |  |
| CC(C)OC(=O)c1cccc(NC(=O)N(CCC(c2ccccc2)c2ccccc2)CCN2CCOCC2)c1 [Example 48, 3-[3-(3,3-diphenylpropyl)-3-(2-morpholin-4-ylethyl)ureido]benzoic acid isopropyl ester hydrochloride] |  | 32% |  |
| CC(C)OC(=O)c1cc(NC(=O)N(CCC(c2ccccc2)c2ccccc2)CCN2CCOCC2)ccc1Cl [Example 51, 2-chloro-5-[3-(3,3-diphenylpropyl)-3-(2-morpholin-4-ylethyl)ureido]benzoic acid isopropyl ester hydrochloride] |  | 13% |  |
| Cl.O=C(Nc1cccc(-c2cnco2)c1)N(CCC(c1ccccc1)c1ccccc1)CCN1CCOCC1 [Example 68, 1-(3,3-diphenylpropyl)-1-(2-morpholin-4-ylethyl)-3-(3-oxazol-5-ylphenyl)urea hydrochloride] | 67% | 94% | 94% |
| O=C(Nc1cccc(-c2ccco2)c1)N(CCC(c1ccccc1)c1ccccc1)CCN1CCOCC1 [Example 76A, 1-(3,3-diphenylpropyl)-3-(3-furan-2-ylphenyl)-1-(2-morpholin-4-ylethyl)urea hydrochloride] |  | 14% |  |
